Test results from patent US20060281807A1, “Quassinoid compositions for the treatment of cancer and other proliferative diseases” (Tapestry Pharmaceuticals, Inc., priority 2005, published 2006).
≈ marks a conversion by molar mass, not a printed value. Where “and” joins values, the source holds several entries; their conditions need not be identical. Equal entries are not always repeated. Where two headings read alike, the source gives them in different places.

Legend:
[1] = tested on: Colon 38 (murine colon adenocarcinoma); assay: Disk diffusion assay, zone of inhibition, Colon 38; zone differentials, potency and product; type: cell-based; design: key to C38ΔL1210 / C38ΔCFU: difference of zone of inhibition values, in zone units; details: for zone of inhibition, Colon 38: 1 mg/mL; for Sum: C38ΔL1210 plus C38ΔCFU; for C38ΔL1210: Colon38 vs L1210 leukemia
In short: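 Dissociated Colon 38 cells were plated in soft agar over a hard agar layer; 15 µl of compound dilution dried on a 6.5 mm disk was placed on the plate, and incubation ran 7–10 days. Inhibition zone was measured from disk edge to normal colonies, with the disk diameter = 200 units. Potency = dilution giving 500 units; the product multiplies it by the differentials against L1210 or CFU-GM.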

[2] = tested on: HCT116 (human colorectal carcinoma); assay: Disk diffusion assay, zone of inhibition, HCT116; type: cell-based; details: 1 mg/mL
[3] = tested on: HCT-116 cells; assay: Clonogenic assay, HCT-116; type: cell-based, human; details: colonies at 7 days
[4] = tested on: CCRF-CEM (human leukemia); assay: Disk diffusion assay, zone of inhibition, CCRF-CEM; type: cell-based; details: 1 mg/mL
[5] = Maximum tolerated dose in mice; details: for MTD at 30 days / MTD: mouse, in vivo, iv
Experimental: Formulations containing 15-O-(3′-hydroxy-3′-isopropyl-4′-methylpentanoyl)bruceolide, 15-(3-isopropyl-4-methyl-2-pentenoyl)-bruceolide, and, for comparative purposes, bruceantin, or peninsularinone were prepared by solubilizing each compound in up to 100 mg/mL of ethanol. These solutions were diluted 1:1 with a stabilizer (Cremophor/propylene glycol). The solutions were then diluted in saline (1:10 minimum).
The maximum tolerated dose (MTD) was determined by a two-stage experiment. In the first stage, between 1 and 10 mg/mL of the formulation was prepared as described above. Next, 0.25 mL of the formulation was injected intravenously into one 20 gram mouse (0.75 mg/mouse). If the animal died within 30 days of injection, a series of subsequent 2-fold dilutions were administered to individual mice until an MTD was defined. […] The second stage of the study involved increasing the number of mice per dose to four, and retesting four dilutions that bracket the MTD from the individual mouse study. The four dilutions were the MTD, a dosage twice the MTD, a dosage ½ the MTD, and a dosage ¼ the MTD.

[6] = tested on: HCT-116 cells; assay: HCT-116 cytotoxicity, viable cell count by trypan blue; type: cell-based, human; details: for IC90/IC50: HCT-116; for IC50 / IC90: Homo sapiens
[7] = tested on: L1210 (murine leukemia); assay: Disk diffusion assay, zone of inhibition, L1210; type: cell-based; details: 1 mg/mL
[8] = no dilution, 15 μl on disk, 6.5 mm = 200 units
[9] = difference between zone of inhibition values
[10] = intravenous, first stage, one mouse per dose
[11] = intravenous, second stage, four mice per dose
[12] = maximum tolerated dose, Dose - 1 Mouse, first stage, one mouse per dose
[13] = maximum tolerated dose, Dose - 4 Mice, second stage, four mice per dose

| Structure (SMILES) | zone of inhibition, Colon 38 ([1]; dilution 1/10) [units] | zone of inhibition, Colon 38 ([1]; dilution 1/100) | zone of inhibition, Colon 38 ([1]; dilution 1/1000) | zone of inhibition, Colon 38 [1, 8] [units] | Sum [1] | C38ΔL1210 [1, 9] | zone of inhibition, H-116 ([2]; dilution 1/10) | zone of inhibition, H-116 ([2]; dilution 1/1000) [units] | zone of inhibition, H-116 [2, 8] [units] | Concentration Required for 10^−1 Survival Fraction ([3]; HCT-116, 2 Hour Exposure) [μg/mL] | Concentration Required for 10^−1 Survival Fraction ([3]; HCT-116, 24 Hour Exposure) | Concentration Required for 10^−1 Survival Fraction ([3]; HCT-116, Continuous Exposure) | zone of inhibition, CEM ([4]; dilution 1/10) | zone of inhibition, CEM ([4]; dilution 1/100) | maximum tolerated dose, Dose - 1 Mouse [5, 10] [mg/mouse] | maximum tolerated dose, Dose - 4 Mice [5, 11] [mg/mouse] | IC90/IC50 [6] | zone of inhibition, L1210 ([7]; dilution 1/10) [units] | zone of inhibition, L1210 ([7]; dilution 1/100) | zone of inhibition, L1210 [7, 8] [units] | other results |
| --- | --- | --- | --- | --- | --- | --- | --- | --- | --- | --- | --- | --- | --- | --- | --- | --- | --- | --- | --- | --- | --- |
| COC(=O)[C@@]12OC[C@@]34C1[C@@H](OC(=O)C=C(C(C)C)C(C)C)C(=O)O[C@@H]3C[C@H]1C(C)=C(O)C(=O)C[C@]1(C)[C@H]4[C@@H](O)[C@@H]2O (stereo partly drawn) [15-O-(3′-isopropyl-4′-methyl-2′-pentenoyl)-bruceolide] | >1000 | 850 units and 650 units | 450 units | >1000 | 750 | 300 | 750 units | 0 | >1000 | >10 | 1.5 × 10^0 μg/mL | 1.5 × 10^−3 μg/mL | 800 units | 400 units | 0.05 | 0.25 | 7 | 1000 | 650 units and 600 units | >1000 | C38ΔCFU ([1]; difference between zone of inhibition values, Colon38 vs normal cell CFU-GM): 450; Product ([1]; potency multiplied by zone differentials): 4500; zone of inhibition, H-116 ([2]; dilution 1/100): 100 units; mice survived the duration of the experiment ([5]; dose of 0.1, 0.075, 0.05, or 0.025 mg/mouse, intravenous): 100%; MTD at 30 days [5, 12]: 2.9 mg/kg; MTD at 30 days [5, 13]: 4 mg/kg; IC50 ([6]; HCT-116, 72 h): 1.5 ng/mL (≈ 0.0026 µM); IC90 ([6]; HCT-116, 72 h): 10 ng/mL (≈ 0.0173 µM); zone of inhibition, L1210 ([7]; dilution 1/1000): 150 units |
| COC(=O)[C@@]12OC[C@@]34C1[C@@H](OC(=O)CC(O)(C(C)C)C(C)C)C(=O)O[C@@H]3C[C@H]1C(C)=C(O)C(=O)C[C@]1(C)[C@H]4[C@@H](O)[C@@H]2O (stereo partly drawn) [15-O-(3′-hydroxy-3′-isopropyl-4′-methylpentanoyl)bruceolide] | >1000 | 750 units and 600 units and 500 units | 400 units and 250 units | >1000 | 750 and 1450 | 400 and 550 | 1000 units and 900 units | 0 | >1000 | >10 | 1 × 10^0 μg/mL | 7 × 10^−3 μg/mL | 650 units and 700 units | 100 units and 150 units | 3.2 | 1.5 | 35 | 550 | 200 units | 1000 | zone of inhibition, Colon 38 ([1]; dilution 1/400): 300 units; mice survived the duration of the experiment ([5]; dose of either 1.5 or 0.75 mg/mouse, intravenous (FIG. 6)): 100%; MTD ([5]; MTD, mice): 60 to 65 mg/kg/day; MTD [5, 12]: 109 mg/kg; MTD [5, 13]: 60 mg/kg; IC50 ([6]; 72 h, HCT-116, 3 days with compound, viable cells, by interpolation, read-out: IC50): 1.9 ng/mL (≈ 0.0032 µM); IC90 ([6]; 72 h, HCT-116, 3 days with compound, viable cells, by interpolation, read-out: IC90): 67 ng/mL (≈ 0.113 µM); zone of inhibition, L1210 ([7]; dilution 1/400): 0 units |
